Results from patent publication EP0419676B1, “THIONAPHTHALENE DERIVATIVES, METHOD OF PRODUCING THE SAME, AND ANTIALLERGIC AGENT CONTAINING THE SAME” (TEIJIN LIMITED, priority 1989, dated 1990).
Read-outs that look alike come from different tables or passages of the source.

Columns and labels:
anti-TNP IgG = test: Anti-TNP IgG production by cultured spleen cells of TNP-KLH-immunized mouse; assay type: cell-based, BALB/C mouse; conditions: for Anti-TMP antibody production IgG: TNP-KLH 10 ng/ml, no addition 8.1
Method: (§1) An 8 weeks old BALB/C mouse (♀) was immunized by an intraperitoneal injection of 10 µg of TNP-KLH (trinitrophenyl-key hole limpet hemocyanine) and 2 mg of aluminum hydroxide gel, and after 3 weeks, 1 µg of TNP-KLH and 2 mg of aluminum hydroxide gel were boosted, and 4 weeks later, the spleen was enucleated.
(§2) The spleen cells (6 x 10⁶) were cultured together with 10 ng/ml of TNP-KLH, in the presence or non-presence of the compound of the present invention (10⁻⁵ to 10⁻⁷ M), in 1 ml of RPMI-1640 medium (containing 10% fetal bovine serum) for 2 days, followed by washing to remove the antigen and the drug, and the washed cells were resuspended in a fresh medium containing no antigen and further cultured for 5 days. All cultivations were performed under 5% CO₂ at 37°C. After completion of the culturing, the supernatant was recovered, and the concentration of anti-TNP IgE or anti-TNP IgG antibody was determined by an antigen and isotype specific immunoassay. […]
(§3) The same experimental methods were used for the compounds shown below, and IgE antibody production suppressive effects were evaluated. […] (Exemplary compound VI - (1)): methyl (6,7-dimethoxy-2-naphthylthio)acetate (Exemplary compound V - (4)): N-(2-methoxycarbonylphenyl)-(6,7-dihydroxy-2-naphthylthio)acetamide (Exemplary compound V - (2)): N-tetrazolyl(6,7-dihydroxy-2-naphthylthio)acetamide Table 2

Lipoxygenase = molecular target: T1, Lipoxygenase (Homo sapiens, UniProt P09917); test: Lipoxygenase inhibitory activity evaluation: LTB4 and 5-HETE production in A23187-stimulated whole blood; assay type: cell-based, healthy man; conditions: 10⁻⁵ M, A23187 25 µM
T1 construct: heparin-treated vein blood of a healthy person; from tissue; host or cells: human heparinised venous whole blood (leukocytes)
T1 sequence (P09917 1-674): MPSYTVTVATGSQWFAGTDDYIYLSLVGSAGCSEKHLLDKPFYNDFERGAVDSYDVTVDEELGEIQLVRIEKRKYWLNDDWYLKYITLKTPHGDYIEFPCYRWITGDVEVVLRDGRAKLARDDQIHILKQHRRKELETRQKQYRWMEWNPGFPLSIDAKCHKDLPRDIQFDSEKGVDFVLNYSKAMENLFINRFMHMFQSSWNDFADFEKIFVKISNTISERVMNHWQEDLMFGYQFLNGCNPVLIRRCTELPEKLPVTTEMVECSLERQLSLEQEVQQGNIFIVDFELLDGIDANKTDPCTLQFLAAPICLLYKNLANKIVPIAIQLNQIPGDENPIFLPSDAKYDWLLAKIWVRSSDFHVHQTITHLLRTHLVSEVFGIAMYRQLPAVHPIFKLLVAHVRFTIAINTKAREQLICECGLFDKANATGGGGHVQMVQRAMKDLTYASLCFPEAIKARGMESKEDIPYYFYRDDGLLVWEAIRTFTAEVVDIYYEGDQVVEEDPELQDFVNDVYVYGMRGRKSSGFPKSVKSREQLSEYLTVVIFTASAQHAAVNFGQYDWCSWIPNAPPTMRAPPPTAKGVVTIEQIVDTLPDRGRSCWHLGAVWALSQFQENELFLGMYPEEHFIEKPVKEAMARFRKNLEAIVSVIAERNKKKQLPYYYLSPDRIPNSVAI
Method: To 1 ml of heparin-treated vein blood of a healthy person without an administration of drugs was added 1 µl of a DMSO solution of the drug test sample listed in Table 5 (final 10⁻⁵ M), and after treatment at 37°C for 5 minutes, 5 µl of a DMSO solution of A23187 was added (final 25 µM) and the treatment carried out at 37°C for 15 minutes, followed by ice-cooling. After the addition of 10 µl of a DMSO solution of 100 ng of 15-HETE as the internal standard substance for quantitation, 0.8 ml of acetonitrile was added, and the precipitates formed were removed by centrifugation. Then, LTB₄ and 5-HETE in the supernatant were subjected to HPLC separation and quantitation (ref. F.J. Sweeney, et al., Prostaglandins Leukotrienes & Med., 28, 73 (1987)).

[1] = system: anti-TNP IgE antibody production; test: IgE antibody production suppressive effect: anti-TNP IgE production by cultured spleen cells of TNP-KLH-immunized mouse; assay type: cell-based, BALB/C mouse; conditions: for Anti-TMP antibody production IgE, value in brackets (IgE production dependency on the antigen) / Anti-TMP antibody production IgE: TNP-KLH 10 ng/ml; for Anti-TMP antibody production IgE, value in brackets (IgE production dependency on the antigen): no addition 8.5; for Anti-TMP antibody production IgE: no addition 13.0
Method: as §1, §2
The values in the brackets ( ) indicate the values of the spontaneous IgE production amount observed when TNP-KLH was not added, and represent the IgE production dependency on the antigen.
as §3

[2] = system: Rat homologous PCA reaction; test: Rat homologous PCA reaction; assay type: in vivo, Sprague-Dawley strain male rat; conditions: p.o., 1 hour before antigen
Method: The back of a Sprague-Dawley strain male rat (6 - 8 w) was depilated, and at one site on both sides thereof, 0.1 ml of a rat anti-ovalbumin IgE serum diluted with physiological saline was intradermally injected under ether anesthesia. After 48 hours, 25 mg/kg of ovalbumin, 25 mg/kg of Evans Blue were intravenously administered to induce the PCA reaction, and after 30 minutes, the skin was peeled off, dipped in a mixture of 0.3% Na₂SO₄·10H₂O/Acetate (3:7), and the dye amount infiltrated was quantitated by absorbance at 620 nm. The drug listed in Table 4 was suspended in 5% gum arabic solution and orally administered 1 hour before the antigen administration.

[3] = system: peritoneal mast cells of rat; test: Histamine release from IgE-sensitized peritoneal mast cells, DNP-As antigen (allergic release); assay type: cell-based, Sprague-Dawley strain male rat
Method: (§4) To a Sprague-Dawley strain male rat (10 weeks or older) was intraperitoneally administered, under ether anesthesia, a diluted rat anti-DNP-As IgE serum at 2 ml/kg. After 16 hours, cells were recovered by washing intraperitoneally with a Tyrode solution containing 0.5% heparin (Ca⁺⁺, Mg⁺⁺, free). Mast cells (5 x 10⁴) separated by overlying in the 30% Ficoll/Tyrode solution and centrifugation were reliberated into the Tyrode solution (Ca⁺⁺, Mg⁺⁺) and incubated with the addition of the drug solution shown in Table 3-1, for 10 minutes, and then DNP-As and phosphatidylserine were added to final concentrations of 20 µg/ml and 25 µg/ml, respectively, followed by incubation for 10 minutes. The reaction was stopped by ice-cooling, and the histamine release in the supernatant was determined by fluorophotometry.

[4] = system: peritoneal mast cells of rat; test: Histamine release from peritoneal mast cells induced by Compound 48/80 (non-allergic release); assay type: cell-based, Sprague-Dawley strain male rat; conditions: for inhibition at 10 µM: 10⁻⁵ M
Method: as §4, with “fluorophotometry. Regarding the non-allergy release, 5 x 10⁴ of mast cells were investigated by incubation with 0.5 µg/ml of Compound 48/80 for 10 minutes, after the addition of the drug solution shown in Table 3-2.” for “fluorophotometry.”

## COC(=O)CSc1ccc2cc(O)c(O)cc2c1 [Exemplary compound IV-(1), Methyl (6,7-dihydroxy-2-naphthylthio)acetate]
anti-TNP IgG
  suppressive effect against the production of anti-TNP IgG (in words): substantially no suppressive effect
anti-TNP IgG; 10⁻⁶ M
  Anti-TMP antibody production IgG: 7.3 µg/mL
anti-TNP IgG; 10⁻⁷ M
  Anti-TMP antibody production IgG: 7.5 µg/mL
Lipoxygenase
  5-HETE (Inhibitory ratio %): 60%
  LTB₄ (Inhibitory ratio %): 74%
Lipoxygenase; no addition 125
  Amount of LTB₄ produced: 32 ng/ml/plasma
Lipoxygenase; no addition 130
  Amount of 5-HETE produced: 52 ng/ml/plasma
[1]; 10⁻⁵ to 10⁻⁷ M
  suppression of anti-TNP IgE antibody production (in words): suppressed the anti-TNP IgE antibody production dose-dependency
[1]; 10⁻⁶ M
  Anti-TMP antibody production IgE, value in brackets (IgE production dependency on the antigen): 1.0 ng/mL
  Anti-TMP antibody production IgE: 5.5 ng/mL
[1]; 10⁻⁷ M
  Anti-TMP antibody production IgE, value in brackets (IgE production dependency on the antigen): 2.5 ng/mL
  Anti-TMP antibody production IgE: 7.5 ng/mL
[1]; antigen-dependent IgE production compared with spontaneous IgE production
  suppressive ratio (antigen-dependent IgE production): 70 - 90%
[2]; 25 mg/kg
  Suppressive ratio (%) Experiment 1: 14.8%
  Suppressive ratio (%) Experiment 2: 24.2%
[2]; 50 mg/kg
  Suppressive ratio (%) Experiment 2: 31.3%
[3]
  suppressive action against allergy histamine release (in words): suppressive actions
[4]
  suppressive action against non-allergy histamine release (in words): weak suppressive actions
[4]; Rattus norvegicus, Mast cell, 10 min, Experiment 1, 10⁻⁴ M, Compound 48/80 0.5 µg/ml, read-out: Inhibitory ratio (%) histamine release
  inhibition at 100 µM: 23%
[4]; Rattus norvegicus, Mast cell, 10 min, Experiment 1, Compound 48/80 0.5 µg/ml, read-out: Inhibitory ratio (%) histamine release
  inhibition at 10 µM: 10.5%
[4]; Rattus norvegicus, Mast cell, 10 min, Experiment 1, 10⁻⁶ M, Compound 48/80 0.5 µg/ml, read-out: Inhibitory ratio (%) histamine release
  inhibition at 1 µM: -1.9%
[4]; Rattus norvegicus, Mast cell, 10 min, Experiment 2, Compound 48/80 0.5 µg/ml, read-out: Inhibitory ratio (%) histamine release
  inhibition at 10 µM: 2%
